Data on 26 compounds can be found in patent publication US7718808B2, “Thiazole derivatives” (Kyowa Hakko Kirin Co., Ltd., priority 2003, dated 2010).

Molecules are shown by their SMILES.

For the compound `O=C(Nc1nc(-c2ccco2)c(C(=O)C2CCOCC2)s1)c1ccccc1F` [Compound 466, 2-Fluoro-N-[4-(2-furyl)-5-(tetrahydropyran-4-ylcarbonyl)thiazol-2-yl]benzamide], the melting point (as a rule, the temperature of the solid-liquid transition) was 172 to 176 °C. For the compound `O=C(Nc1nc(-c2ccco2)c(C(=O)C2CCOCC2)s1)c1cccc(F)c1` [Compound 467, 3-Fluoro-N-[4-(2-furyl)-5-(tetrahydropyran-4-ylcarbonyl)thiazol-2-yl]benzamide], the melting point was in the range of 229 to 231 °C. In the case of `O=C(Nc1nc(-c2ccco2)c(C(=O)C2CCOCC2)s1)c1ccccc1Cl` [Compound 469, 2-Chloro-N-[4-(2-furyl)-5-(tetrahydropyran-4-ylcarbonyl)thiazol-2-yl]benzamide], the melting point was in the range of 160 to 162 °C. As to `O=C(Nc1nc(-c2ccco2)c(C(=O)C2CCOCC2)s1)c1cccc(Cl)c1` [Compound 470, 3-Chloro-N-[4-(2-furyl)-5-(tetrahydropyran-4-ylcarbonyl)thiazol-2-yl]benzamide], the melting point lay within 210 to 212 °C. The figure for `O=C(Nc1nc(-c2ccco2)c(C(=O)C2CCOCC2)s1)c1ccc(Cl)cc1` [Compound 471, 4-Chloro-N-[4-(2-furyl)-5-(tetrahydropyran-4-ylcarbonyl)thiazol-2-yl]benzamide] is 204 to 206 °C; for `N#Cc1ccccc1C(=O)Nc1nc(-c2ccco2)c(C(=O)C2CCOCC2)s1` [Compound 472, 2-Cyano-N-[4-(2-furyl)-5-(tetrahydropyran-4-ylcarbonyl)thiazol-2-yl]benzamide] it is 221 to 224 °C.

Consider `N#Cc1cccc(C(=O)Nc2nc(-c3ccco3)c(C(=O)C3CCOCC3)s2)c1` [Compound 473, 3-Cyano-N-[4-(2-furyl)-5-(tetrahydropyran-4-ylcarbonyl)thiazol-2-yl]benzamide], for which the melting point was 257 to 260 °C. Turning to `N#Cc1ccc(C(=O)Nc2nc(-c3ccco3)c(C(=O)C3CCOCC3)s2)cc1` [Compound 474, 4-Cyano-N-[4-(2-furyl)-5-(tetrahydropyran-4-ylcarbonyl)thiazol-2-yl]benzamide], the melting point was in the range of 231 to 234 °C. Take `O=C(Nc1nc(-c2ccco2)c(C(=O)C2CCOCC2)s1)c1ccccc1OC(F)(F)F` [Compound 475, N-[4-(2-Furyl)-5-(tetrahydropyran-4-ylcarbonyl)thiazol-2-yl]-2-(trifluoromethoxy)benzamide]: the melting point lay within 131 to 134 °C. The figure for `O=C(Nc1nc(-c2ccco2)c(C(=O)C2CCOCC2)s1)c1cccc(OC(F)(F)F)c1` [Compound 476, N-[4-(2-Furyl)-5-(tetrahydropyran-4-ylcarbonyl)thiazol-2-yl]-3-(trifluoromethoxy)benzamide] is 197 to 198 °C; for `O=C(Nc1nc(-c2ccco2)c(C(=O)C2CCOCC2)s1)c1ccc(OC(F)(F)F)cc1` [Compound 477, N-[4-(2-Furyl)-5-(tetrahydropyran-4-ylcarbonyl)thiazol-2-yl]-4-(trifluoromethoxy)benzamide] it is 177 to 180 °C; for `CN(C)Cc1ccc(C(=O)Nc2nc(-c3ccco3)c(C(=O)C3CCOCC3)s2)cc1` [Compound 479, 4-(Dimethylaminomethyl)-N-[4-(2-furyl)-5-(tetrahydropyran-4-ylcarbonyl)thiazol-2-yl]benzamide] it is 109 to 112 °C.

Compound `O=C(Nc1nc(-c2ccco2)c(C(=O)C2CCOCC2)s1)c1ccc(CN2CCCCC2)cc1` [Compound 480, N-[4-(2-Furyl)-5-(tetrahydropyran-4-ylcarbonyl)thiazol-2-yl]-4-(piperidinomethyl)benzamide] returned a melting point of 160 to 162 °C. Turning to `O=C(Nc1nc(-c2ccco2)c(C(=O)C2CCOCC2)s1)c1ccc(CN2CCC(O)CC2)cc1` [Compound 481, N-[4-(2-Furyl)-5-(tetrahydropyran-4-ylcarbonyl)thiazol-2-yl]-4-(4-hydroxypiperidinomethyl)benzamide], the melting point lay within 194 to 195 °C. Turning to `O=C(Nc1nc(-c2ccco2)c(C(=O)C2CCOCC2)s1)c1ccc(CN2CCOCC2)cc1` [Compound 482, N-[4-(2-Furyl)-5-(tetrahydropyran-4-ylcarbonyl)thiazol-2-yl]-4-(morpholinomethyl)benzamide], the melting point was 92 to 96 °C.

On to `COc1cccc(C(=O)Nc2nc(-c3ccco3)c(C(=O)C3CCOCC3)s2)c1OC` [Compound 483, N-[4-(2-Furyl)-5-(tetrahydropyran-4-ylcarbonyl)thiazol-2-yl]-2,3-dimethoxybenzamide], for which the melting point was in the range of 198 to 200 °C. `COc1ccc(C(=O)Nc2nc(-c3ccco3)c(C(=O)C3CCOCC3)s2)c(OC)c1` [Compound 484, N-[4-(2-Furyl)-5-(tetrahydropyran-4-ylcarbonyl)thiazol-2-yl]-2,4-dimethoxybenzamide] displayed a melting point of 219 to 222 °C. Consider `COc1ccc(OC)c(C(=O)Nc2nc(-c3ccco3)c(C(=O)C3CCOCC3)s2)c1` [Compound 485, N-[4-(2-Furyl)-5-(tetrahydropyran-4-ylcarbonyl)thiazol-2-yl]-2,5-dimethoxybenzamide], for which the melting point is 107 to 110 °C.

On to `COc1cccc(OC)c1C(=O)Nc1nc(-c2ccco2)c(C(=O)C2CCOCC2)s1` [Compound 486, N-[4-(2-Furyl)-5-(tetrahydropyran-4-ylcarbonyl)thiazol-2-yl]-2,6-dimethoxybenzamide], for which the melting point fell in the range of 152 to 156 °C. `COc1ccc(C(=O)Nc2nc(-c3ccco3)c(C(=O)C3CCOCC3)s2)cc1OC` [Compound 487, N-[4-(2-Furyl)-5-(tetrahydropyran-4-ylcarbonyl)thiazol-2-yl]-3,4-dimethoxybenzamide] registered a melting point of 289 to 292 °C. `COc1cc(OC)cc(C(=O)Nc2nc(-c3ccco3)c(C(=O)C3CCOCC3)s2)c1` [Compound 488, N-[4-(2-Furyl)-5-(tetrahydropyran-4-ylcarbonyl)thiazol-2-yl]-3,5-dimethoxybenzamide] registered a melting point of 278 to 280 °C. Take `O=C(Nc1nc(-c2ccco2)c(C(=O)C2CCOCC2)s1)c1cccc(F)c1F` [Compound 489, 2,3-Difluoro-N-[4-(2-furyl)-5-(tetrahydropyran-4-ylcarbonyl)thiazol-2-yl]benzamide]: the melting point lay within 154 to 160 °C.

`O=C(Nc1nc(-c2ccco2)c(C(=O)C2CCOCC2)s1)c1ccc(F)cc1F` [Compound 490, 2,4-Difluoro-N-[4-(2-furyl)-5-(tetrahydropyran-4-ylcarbonyl)thiazol-2-yl]benzamide] had a melting point of 213 to 215 °C. Under `O=C(Nc1nc(-c2ccco2)c(C(=O)C2CCOCC2)s1)c1cc(F)ccc1F` [Compound 491, 2,5-Difluoro-N-[4-(2-furyl)-5-(tetrahydropyran-4-ylcarbonyl)thiazol-2-yl]benzamide] stands 172 to 174 °C; under `O=C(Nc1nc(-c2ccco2)c(C(=O)C2CCOCC2)s1)c1c(F)cccc1F` [Compound 492, 2,6-Difluoro-N-[4-(2-furyl)-5-(tetrahydropyran-4-ylcarbonyl)thiazol-2-yl]benzamide], 168 to 170 °C; under `O=C(Nc1nc(-c2ccco2)c(C(=O)C2CCOCC2)s1)c1ccc(F)c(F)c1` [Compound 493, 3,4-Difluoro-N-[4-(2-furyl)-5-(tetrahydropyran-4-ylcarbonyl)thiazol-2-yl]benzamide], 208 to 210 °C.
